Experimental data as given in patent US20200397816A1, “METHODS TO TREAT INFLAMMATORY AND SMOOTH MUSCLE CELL PROLIFERATION DISORDERS” (THE TRUSTEES OF INDIANA UNIVERSITY, priority 2019, published 2020).

Experiments:
EGR1 [1] = test: EGR1 protein western blot and immunofluorescence in hPASMC; type: cell-based, human; details: SMCs (hPASMC); MEK inhibitor 10 μM; EMAP II 1 hour
Description: (§1) RAW 264.7 (ATCC) mouse macrophages and Human Embryonic Kidney (HEK) 293T cells were cultured in DMEM media with 10% fetal bovine serum […] and glutamine HEPES buffer and beta-mercaptoethanol were added to the growth medium used for RAW 264.7 macrophages. Primary human pulmonary artery smooth muscle cells (hPASMC) purchased from Lonza (Walkersville, Md.) were cultured in complete growth medium containing smooth muscle growth media-2 (SmGM-2) with 10% FBS and growth factors provided as a kit by the supplier (Lonza, (Walkersville, Md.). THP-1 human monocyte cells were cultured in RPMI 1640 with 10% FBS and glutamine Cells were cultured in a humidified atmosphere with 5% CO2 at 370 C. For all studies passages 5-14 were used for RAW 264.7 and passages 5-10 were used for hPASMCs. For treatment studies, subconfluent cells plated in multi-well plates were serum starved and if required, pretreated for with inhibitors before stimulating with 2 μg/mL recombinant EMAP II.
(§2) After appropriate treatments, protein lysates were prepared by using RIPA buffer supplemented with phosphatase and protease inhibitors (Thermo Fischer Scientific). Alpha-tubulin was used as a loading control. For nuclear and cytoplasmic fractionation, NE-PER kit from Thermo Fischer Scientific was used. Western blots were performed according to standard methods and quantified using densitometry using Image Studio Lite software from LI-COR Biosciences.
Primary hPASMCs cells or human THP-1 macrophages were seeded in Nunc Lab-Tek™ II 4-well imaging plates (Thermo Fisher Scientific) chamber well slides and cultured in growth medium. After the serum starvation cells were stimulated with EMAP II. Treated cells were rinsed with PBS and fixed with 4% paraformaldehyde at room temperature for 15 min and permeabilized with 0.1% Triton X-100 at room temperature for 10 min After washing with PBS three times, the cells were incubated with EGR1, 1amin, or pSphK1 antibody at 40C overnight. The cells were then rinsed with PBS three times and subsequently incubated with respective secondary antibody conjugated with Alex Fluor 647 and 488 or Phalloidin 488 at room temperature for 1 h. The cells were rinsed with PBS three times and coverslips were mounted with SlowFade Gold Antifade Mountant with DAPI (Thermo Fischer Scientific) and the cells were examined under Olympus microscope with 40× for EGR1 expression and with 60× for pSphK1 water immersion.
Knockdown of endogenous EGR1 was carried out by transfecting with 25 nM final concentration of ON-TARGETplus siRNAs specific for EGR1 or non-targeting control purchased from GE Dharmacon (Lafayette,CO) using Viromer Blue (Lipocalyx) per manufacturer's instructions. Cells were stimulated with EMAP II 48 h post-transfection.
RAW 264.7 (ATCC) mouse macrophages and HEK-293T (ATCC) cells were cultured in DMEM media with 10% (v/v) fetal bovine serum (FBS) and 2 mM glutamine HEPES buffer and beta-mercaptoethanol were added to the growth medium used for RAW 264.7 macrophages. […]

EGR1 [2] = test: EGR1 transcripts qRT-PCR in RAW 264.7 macrophages; type: cell-based, mouse; details: 10 μM pretreatment, EMAP II 45 minutes, normalized against Hprt1
Description: (§3) RAW 264.7 (ATCC) mouse macrophages and Human Embryonic Kidney (HEK) 293T cells were cultured in DMEM media with 10% fetal bovine serum […] and glutamine HEPES buffer and beta-mercaptoethanol were added to the growth medium used for RAW 264.7 macrophages. […]
(§4) Total RNA was extracted with TriZol using standard RNA extraction protocol and reverse transcribed with SuperScript III Reverse Transcriptase (Thermo Fischer Scientific). SphK1, Tnf, Il6, EGR1, Gapdh, Hprt1 transcripts were quantified using PrimePCR SYBR Green assays from BioRad. […]
(§5) Total RNA was extracted with TriZol using standard RNA extraction protocol and reverse transcribed with SuperScript III Reverse Transcriptase (Thermo Fisher Scientific). SPHK1, Tnf, Il6, EGR1, Gapdh, Hprt1 transcripts were quantified using PrimePCR SYBR Green assays from BioRad.

EGR1 [3] = test: EGR1 transcripts qRT-PCR in hPASMC; type: cell-based, human; details: SMCs; 10 μM pretreatment; EMAP II 45 minutes; normalized against Gapdh
Description: as §3, §4, §5

EGR1 [4] = test: EGR1 protein western blot (whole cell lysates, nuclear fractions) in RAW 264.7 macrophages; type: cell-based, mouse; details: macrophages (RAW 264.7); MEK inhibitor 10 μM; EMAP II 2 hours
Description: as §1, §2
RAW 264.7 (ATCC) mouse macrophages and HEK-293T (ATCC) cells were cultured in DMEM media with 10% (v/v) fetal bovine serum (FBS) and 2 mM glutamine HEPES buffer and beta-mercaptoethanol were added to the growth medium used for RAW 264.7 macrophages. Primary human pulmonary artery smooth muscle cells (hPASMC) purchased from Lonza (Walkersville, Md.) were cultured in complete growth medium containing smooth muscle growth media-2 (SmGM-2) with 10% FBS and growth factors provided as a kit by the supplier (Lonza, (Walkersville, Md.). THP-1 human monocyte cells were cultured in RPMI 1640 with 10% FBS and glutamine Cells were cultured in a humidified atmosphere with 5% CO2 at 37° C. For all studies passages 5-14 were used for RAW 264.7 and passages 5-10 were used for hPASMCs. For treatment studies, subconfluent cells plated in multi-well plates were serum starved and if required, pretreated with inhibitors before stimulation with 2 μg/mL recombinant EMAP II.
After appropriate treatments, protein lysates were prepared by using RIPA buffer supplemented with phosphatase and protease inhibitors (Thermo Fisher Scientific). Alpha-tubulin was used as a loading control. […] Western blots were performed according to standard methods and quantified using densitometry using Image Studio Lite software from LI-COR Biosciences.

pSTAT3 (Y705) = test: EMAP II induced pSTAT3 western blot in RAW 264.7 macrophages; type: cell-based, mouse; details: RAW 264.7 macrophages, EMAP II 24 hours
Description: as §2
After appropriate treatments, protein lysates were prepared by using RIPA buffer supplemented with phosphatase and protease inhibitors (Thermo Fisher Scientific). Alpha-tubulin was used as a loading control. For nuclear and cytoplasmic fractionation, NE-PER kit from Thermo Fischer Scientific was used. Western blots were performed according to standard methods and quantified using densitometry using Image Studio Lite software from LI-COR Biosciences.

[5] = test system: STAT3 transcription reporter plasmid; test: STAT3 transcription reporter luciferase assay in HEK293-T cells; type: cell-based, human; details: inhibitor pretreatment 1 hour, luciferase after 24 hours
Description: Transfection and luciferase assay. Human Embryonic Kidney (HEK) 293-T cells cultured in DMEM media containing 10% serum were reverse co-transfected with pGL4.47fluc2P/SIE/Hygrol and pGL4.74 [hRluc/TK] using Attractene Transfection Reagent (301005, Qiagen) as per manufacturer's protocol. Pretreated with inhibitors for 1 hour as required. After the treatment cells were incubated for 24 hours and luciferase activity was measured using Dual-Glo Luciferase Assay (E2920, Promega) per manufacturer's guidelines.
HEK 293-T cells cultured in DMEM media containing 10% serum were reverse co-transfected with pGL4.47fluc2P/SIE/Hygrol and pGL4.74 [hRluc/TK] using Attractene Transfection Reagent (301005, Qiagen) as per manufacturer's protocol. Pretreated with inhibitors for 1 hour as required. After the treatment cells were incubated for 24 hours and luciferase activity was measured using Dual-Glo Luciferase Assay (E2920, Promega) per manufacturer's guidelines.

Question: For `CC(=O)Nc1cccc(-n2c(=O)n(C3CC3)c(=O)c3c(Nc4ccc(I)cc4F)n(C)c(=O)c(C)c32)c1` [iERK1, Trametinib, reference compound], which “EMAP II induced EGR1 protein expression” value (EGR1 [1]) is on record?
Answer: The value was “blocked”.

Question: And the “EMAP II induced EGR1 transcription” value (EGR1 [2])?
Answer: The value was “inhibited”.

Question: And the “EMAP II induced EGR1 transcription” value (EGR1 [3])?
Answer: The value was “inhibited”.

Question: What about the “EMAP II induced EGR1 protein expression” value (EGR1 [4]) of the same molecule?
Answer: The value was “blocked”.

Question: For `O=C(NOCC1CC1)c1cc(Br)c(F)c(F)c1Nc1ccc(I)cc1Cl` [iERK, PD184161, reference compound], which “EMAP II induced EGR1 protein expression” value (EGR1 [1]) is on record?
Answer: The value was “blocked”.

Question: What about the “EMAP II induced EGR1 protein expression” value (EGR1 [4]) of the same molecule?
Answer: The value was “blocked”.

Question: What about the “EMAP II induced pSTAT3 (pSTAT3/STAT3)” value (pSTAT3 (Y705); inhibitor pretreatment 10 μM) of the same molecule?
Answer: The value was “significantly inhibited”.

Question: How did the “EMAP II induced pSTAT3 (pSTAT3/STAT3)” value (pSTAT3 (Y705); inhibitor pretreatment 1 μM) turn out when `N#CC[C@H](C1CCCC1)n1cc(-c2ncnc3[nH]ccc23)cn1` [iJAK1/2, Ruxolitinib] was run?
Answer: Its value is “significantly inhibited”.

Question: Which “EMAP II induced pSTAT3 (pSTAT3/STAT3)” value (pSTAT3 (Y705); inhibitor pretreatment 1 μM) does the source give for `CCCCCCc1cccc(NC(=O)[C@H](N)CCP(=O)(O)O)c1` [iS1PR1, W146] here?
Answer: Its value is “significantly inhibited”.

Question: With `Cc1nn(C)c2nc(NNC(=O)Nc3cc(Cl)nc(Cl)c3)cc(C(C)C)c12` [iS1PR2, JTE 013] as the molecule, how does the “EMAP II induced pSTAT3 (pSTAT3/STAT3)” value (pSTAT3 (Y705); inhibitor pretreatment 1 μM) read?
Answer: Its value is “significantly inhibited”.

Question: For `CC(C)(C)C(=O)/C(=N/c1ccc(Cl)cc1)NNc1ccc(Cl)cc1` [iS1PR3, TY 52156], which “EMAP II induced pSTAT3 (pSTAT3/STAT3)” value (pSTAT3 (Y705); inhibitor pretreatment 1 μM) is on record?
Answer: Its value is “significantly inhibited”.

Question: `Cc1cc(CS(=O)(=O)c2ccccc2)cc(OCc2ccc(CN3CCC[C@@H]3CO)cc2)c1` [iSphK1, PF543] was tested. Which “EMAP II induced luminescence of STAT3 transcription reporter plasmid” value [5] did it give?
Answer: The value was “significantly inhibited”.

Question: And the “EMAP II induced pSTAT3 (pSTAT3/STAT3)” value (pSTAT3 (Y705); inhibitor pretreatment 100 nM)?
Answer: Its value is “significantly inhibited”.

Question: What about the “EMAP II induced pSTAT3 (pSTAT3/STAT3)” value (pSTAT3 (Y705); inhibitor pretreatment 100 nM, listed as PF543) of the same molecule?
Answer: Its value is “inhibited”.

Question: What about the “EMAP II induced pSTAT3 (pSTAT3/STAT3)” value (pSTAT3 (Y705); inhibitor pretreatment 100 nM, listed as iSPHK1) of the same molecule?
Answer: The value was “significantly inhibited”.
